Data published in patent US10059945B2, “Methods of controlling cell fate and consequences for disease” (THE GENERAL HOSPITAL CORPORATION, priority 2014, dated 2018).

Test system: reprogrammable MEFs
Test: alkaline phosphatase-positive (AP+) transgene-independent iPSC colony formation
Format: cell-based, mouse
Conditions: 4-factor reprogrammable cells, doxycycline
Method: Transfections of RepMEFs with siRNAs were performed in 12-well plates at the time of dox administration. Per 12-well plate, 2 ul of Lipofectamine™ 2000 was added to 75 ul of Optimem™ (Life Technologies™) and 1.5 ul of siRNA (esiRNA, Sigma™) was added to 75 ul of Optimem™; both mixtures were separately incubated at room temperature for 5 minutes, then combined and incubated for another 15 minutes before adding the solution to the reprogramming media (normal media lacking antibiotics). After overnight incubation, the transfection media was replaced with regular reprogramming media.

generation of AP+ iPSC colonies, small molecules vs knockdown alone | SMILES
significantly enhanced | Cc1c[nH]c(-c2cnc(NCCNc3ccc(C#N)cn3)nc2-c2ccc(Cl)cc2Cl)n1 [Gsk3 inhibitor, CHIR99021]
significantly enhanced | O=C1O[C@H]([C@@H](O)CO)C(O)=C1O [ascorbic acid, L-Ascorbic acid]
